Measurements as given in ChEMBL document CHEMBL5674879, “Enhancer variants reveal a conserved transcription factor network governed by PU.1 during osteoclast differentiation” (Bone Res, 2018).
Calls of active or inactive are those of the source.

Experiments:
Assay type in all cases: functional, cell-based
[1] = system: Leukemia cell; assay: Downregulation of Fosl2 mRNA expression in osteoclasts of human CSF1-induced mouse primary bone marrow derived acute myeloid leukemia cells at 250 nM measured by RT-qPCR analysis
[2] = system: Leukemia cell; assay: Downregulation of Nfatc1 mRNA expression in osteoclasts of human CSF1-induced mouse primary bone marrow derived acute myeloid leukemia cells at 250 nM measured by RT-qPCR analysis
[3] = system: Leukemia cell; assay: Effect on osteoclast differentiation in human CSF1-induced mouse primary bone marrow derived acute myeloid leukemia cells at 250 nM assessed as reduction in PU.1 enrichment at PU.1 enhancers near Nfatc1 measured by Conventional ChIP analysis
[4] = system: Leukemia cell; assay: Effect on osteoclast differentiation in human CSF1-induced mouse primary bone marrow derived acute myeloid leukemia cells at 250 nM assessed as reduction in PU.1 enrichment at PU.1 enhancers near d Fosl2 measured by Conventional ChIP analysis

Measured: Activity

Cc1sc2c(c1C)C(c1ccc(Cl)cc1)=N[C@@H](CC(=O)OC(C)(C)C)c1nnc(C)n1-2
active: all assays above
